Measurements from ChEMBL document CHEMBL1681651, “A broad spectrum anticancer nucleoside with selective toxicity against human colon cells in vitro” (2011).

What was measured:
Type in all cases: functional
OVCAR-3 = assay: Growth inhibition of human OVCAR3 cells assessed as cell growth at 1 uM after 48 hrs by SRB assay; settings: OVCAR-3, 48 h, read-out: Activity
CAKI-1 [1] = assay: Growth inhibition of human Caki1 cells assessed as cell growth at 0.1 uM after 48 hrs by SRB assay; settings: CAKI-1, 48 h, read-out: Activity
BT-549 = assay: Growth inhibition of human BT549 cells assessed as cell growth at 1 mM after 48 hrs by SRB assay; settings: BT-549, 48 h, read-out: Activity
NCI-H322M = assay: Growth inhibition of human NCI-H322M cells assessed as cell growth at 0.1 uM after 48 hrs by SRB assay; settings: read-out: Activity
U-251 = assay: Growth inhibition of human U251 cells assessed as cell growth at 0.1 uM after 48 hrs by SRB assay; settings: U-251, 48 h, read-out: Activity
MDA-MB-231 = assay: Growth inhibition of human MDA-MB-231 cells assessed as cell growth at 100 uM after 48 hrs by SRB assay; settings: MDA-MB-231, 48 h, read-out: Activity
K562 = assay: Growth inhibition of human K562 cells assessed as cell growth at 10 uM after 48 hrs by SRB assay; settings: K562, 48 h, read-out: Activity
SN12C = assay: Growth inhibition of human SN12C cells assessed as cell growth at 1 mM after 48 hrs by SRB assay; settings: read-out: Activity
NCI/ADR-RES = assay: Growth inhibition of human NCI/ADR-RES cells assessed as cell growth at 0.1 uM after 48 hrs by SRB assay; settings: read-out: Activity
Malme-3M [2] = assay: Growth inhibition of human MALME-3M cells assessed as cell growth at 1 mM after 48 hrs by SRB assay; settings: read-out: Activity
Malme-3M [3] = assay: Growth inhibition of human MALME-3M cells after 48 hrs by […] growth inhibition assay
KM12 [4] = assay: Growth inhibition of human KM12 cells assessed as cell growth at 1 uM after 48 hrs by SRB assay; settings: KM12, 48 h, read-out: Activity
HT-29 [5] = assay: Growth inhibition of human HT-29 cells after 48 hrs by […] growth inhibition assay; settings: HT-29, 48 h
HT-29 [6] = assay: Growth inhibition of human HT-29 cells assessed as cell growth at 10 uM after 48 hrs by SRB assay; settings: HT-29, 48 h, read-out: Activity
HOP-92 = assay: Growth inhibition of human HOP92 cells assessed as cell growth at 0.1 uM after 48 hrs by SRB assay; settings: HOP-92, 48 h, read-out: Activity
SNB-19 = assay: Growth inhibition of human SNB19 cells assessed as cell growth at 1 uM after 48 hrs by SRB assay; settings: SNB-19, 48 h, read-out: Activity
A549 = assay: Growth inhibition of human A549 cells assessed as cell growth at 0.1 uM after 48 hrs by SRB assay; settings: A549, 48 h, read-out: Activity
CAKI-1 [7] = assay: Growth inhibition of human Caki1 cells assessed as cell growth at 10 uM after 48 hrs by SRB assay; settings: CAKI-1, 48 h, read-out: Activity
KM12 [8] = assay: Growth inhibition of human KM12 cells after 48 hrs by […] growth inhibition assay; settings: KM12, 48 h
HCT-15 = assay: Growth inhibition of human HCT15 cells assessed as cell growth at 100 uM after 48 hrs by SRB assay; settings: HCT-15, 48 h, read-out: Activity
CAKI-1 [9] = assay: Growth inhibition of human Caki1 cells assessed as cell growth at 1 mM after 48 hrs by SRB assay; settings: CAKI-1, 48 h, read-out: Activity
LOX IMVI = assay: Growth inhibition of human LOXIMVI cells assessed as cell growth at 1 uM after 48 hrs by SRB assay; settings: read-out: Activity
SK-OV-3 = assay: Growth inhibition of human SKOV3 cells assessed as cell growth at 100 uM after 48 hrs by SRB assay; settings: SK-OV-3, 48 h, read-out: Activity
UACC-62 = assay: Growth inhibition of human UACC62 cells after 48 hrs by […] growth inhibition assay; settings: UACC-62, 48 h
NCI-H460 = assay: Growth inhibition of human NCI-H460 cells after 48 hrs by […] growth inhibition assay; settings: NCI-H460, 48 h
NCI-H23 [10] = assay: Growth inhibition of human NCI-H23 cells after 48 hrs by […] growth inhibition assay; settings: NCI-H23, 48 h
CCRF-CEM = assay: Growth inhibition of human CCRF-CEM cells assessed as cell growth at 1 mM after 48 hrs by SRB assay; settings: read-out: Activity
M14 = assay: Growth inhibition of human M14 cells assessed as cell growth at 1 uM after 48 hrs by SRB assay; settings: M14, 48 h, read-out: Activity
IGROV-1 = assay: Growth inhibition of human IGROV1 cells assessed as cell growth at 1 uM after 48 hrs by SRB assay; settings: IGROV-1, 48 h, read-out: Activity
HL-60(TB) = assay: Growth inhibition of human HL-60(TB) cells assessed as cell growth at 10 uM after 48 hrs by SRB assay; settings: HL-60, 48 h, read-out: Activity
NCI-H23 [11] = assay: Growth inhibition of human NCI-H23 cells assessed as cell growth at 1 uM after 48 hrs by SRB assay; settings: NCI-H23, 48 h, read-out: Activity
EKVX = assay: Growth inhibition of human EKVX cells assessed as cell growth at 0.1 uM after 48 hrs by SRB assay; settings: read-out: Activity
HCC 2998 = assay: Growth inhibition of human HCC2998 cells assessed as cell growth at 1 uM after 48 hrs by SRB assay; settings: HCC 2998, 48 h, read-out: Activity
[12] = read-out: LC50 (the source's name)
[13] = read-out: pLC50 (the source's name) (converted)

CCOC(=O)C[C@H]1[C@@H](O[Si](C)(C)C(C)(C)C)[C@H](n2cnc3c(NC(=O)Nc4ccccc4)ncnc32)O[C@@H]1CNC(=O)NC
growth at 1 µM (OVCAR-3): 115%
growth at 0.1 µM (CAKI-1 [1]): 88%
growth at 1000 µM (BT-549): 51%
growth at 0.1 µM (NCI-H322M): 105%
growth at 0.1 µM (U-251): 98%
growth at 100 µM (MDA-MB-231): 20%
growth at 10 µM (K562): 89%
growth at 1000 µM (SN12C): 11%
growth at 0.1 µM (NCI/ADR-RES): 105%
growth at 1000 µM (Malme-3M [2]): 17%
GI50 (Malme-3M [3]; read-out: GI50): 10.3 µM
LC50 (concentration killing 50% of cells) (Malme-3M [3]; read-out: LC50): > 100 µM
TGI (Malme-3M [3]; read-out: TGI): > 100 µM
GI50 (Malme-3M [3]; read-out: pGI50 (converted)): 10.2 µM
LC50 (concentration killing 50% of cells) (Malme-3M [3]; read-out: pLC50 (converted)): > 100 µM
TGI (Malme-3M [3]; read-out: pTGI (converted)): > 100 µM
growth at 1 µM (KM12 [4]): 112%
GI50 (HT-29 [5]; read-out: GI50): 4.2 µM
CC50 (HT-29 [5]; [12]): > 100 µM
TGI (HT-29 [5]; read-out: TGI): > 100 µM
GI50 (HT-29 [5]; read-out: pGI50 (converted)): 4.17 µM
CC50 (HT-29 [5]; [13]): > 100 µM
TGI (HT-29 [5]; read-out: pTGI (converted)): > 100 µM
growth at 10 µM (HT-29 [6]): 104%
growth at 0.1 µM (HOP-92): 4%
growth at 1 µM (SNB-19): 95%
growth at 0.1 µM (A549): 102%
growth at 10 µM (CAKI-1 [7]): 99%
GI50 (KM12 [8]; read-out: GI50): 3.95 µM
CC50 (KM12 [8]; [12]): > 100 µM
TGI (KM12 [8]; read-out: TGI): 20.9 µM
GI50 (KM12 [8]; read-out: pGI50 (converted)): 3.98 µM
CC50 (KM12 [8]; [13]): > 100 µM
TGI (KM12 [8]; read-out: pTGI (converted)): 20.9 µM
growth at 100 µM (HCT-15): 47%
growth at 1000 µM (CAKI-1 [9]): 7%
growth at 1 µM (LOX IMVI): 97%
growth at 100 µM (SK-OV-3): 66%
GI50 (UACC-62; read-out: GI50): > 100 µM
CC50 (UACC-62; [12]): > 100 µM
TGI (UACC-62; read-out: TGI): > 100 µM
GI50 (UACC-62; read-out: pGI50 (converted)): > 100 µM
CC50 (UACC-62; [13]): > 100 µM
TGI (UACC-62; read-out: pTGI (converted)): > 100 µM
GI50 (NCI-H460; read-out: GI50): 5.54 µM
CC50 (NCI-H460; [12]): > 100 µM
TGI (NCI-H460; read-out: TGI): 25 µM
GI50 (NCI-H460; read-out: pGI50 (converted)): 5.5 µM
CC50 (NCI-H460; [13]): > 100 µM
TGI (NCI-H460; read-out: pTGI (converted)): 25.1 µM
GI50 (NCI-H23 [10]; read-out: GI50): 33.3 µM
CC50 (NCI-H23 [10]; [12]): > 100 µM
TGI (NCI-H23 [10]; read-out: TGI): > 100 µM
GI50 (NCI-H23 [10]; read-out: pGI50 (converted)): 33.1 µM
CC50 (NCI-H23 [10]; [13]): > 100 µM
TGI (NCI-H23 [10]; read-out: pTGI (converted)): > 100 µM
growth at 1000 µM (CCRF-CEM): -2%
growth at 1 µM (M14): 82%
growth at 1 µM (IGROV-1): 94%
growth at 10 µM (HL-60(TB)): 101%
growth at 1 µM (NCI-H23 [11]): 100%
growth at 0.1 µM (EKVX): 92%
growth at 1 µM (HCC 2998): 96%
